Measurements from ChEMBL document CHEMBL3885881, “DrugMatrix”.

Organism: Rattus norvegicus
Assay: DrugMatrix - Regimen: Daily Repeat
Assay type: toxicity, organism-based, Sprague-Dawley
Parameters: regimen Daily Repeat, gender Male, age 6-8 weeks
Conditions: in vivo, po, route oral GAVAGE, vehicle .5 % CMC; for ABSOLUTE BASOPHIL / ABSOLUTE EOSINOPHIL / ABSOLUTE LYMPHOCYTE / ABSOLUTE MONOCYTE / ABSOLUTE SEGMENTED NEUTROPHIL / BASOPHIL / EOSINOPHIL / ERYTHROCYTE COUNT / HEMATOCRIT / HEMOGLOBIN / LEUKOCYTE COUNT / LYMPHOCYTE / MEAN CORPUSCULAR HEMOGLOBIN / MEAN CORPUSCULAR HEMOGLOBIN CONCENTRATION / MEAN CORPUSCULAR VOLUME / MONOCYTE / NEUTROPHIL / NUCLEATED RED BLOOD CELLS / PLATELET COUNT: tissue Blood; for ALANINE AMINOTRANSFERASE / ALBUMIN / ALKALINE PHOSPHATASE / ASPARTATE AMINOTRANSFERASE / BLOOD UREA NITROGEN / CARBON DIOXIDE / CHLORIDE / CHOLESTEROL / CREATINE PHOSPHOKINASE / CREATININE / GLUCOSE / LACTATE DEHYDROGENASE / LIPASE / PHOSPHORUS / POTASSIUM / SODIUM / TOTAL BILIRUBIN / TOTAL PROTEIN / URIC ACID: tissue Plasma
[1] = 20 mg/kg, 120 h, dose level Low, time 5 day
[2] = 1500 mg/kg, 72 h, dose level High, time 3 day
[3] = 1500 mg/kg, 120 h, dose level High, time 5 day

Structure (SMILES): CC(C)(C)NC(=O)[C@@H]1C[C@@H]2CCCC[C@@H]2CN1C[C@@H](O)[C@H](Cc1ccccc1)NC(=O)[C@H](CC(N)=O)NC(=O)c1ccc2ccccc2n1
- ABSOLUTE BASOPHIL [1]: 0 CELLS/uL
- ABSOLUTE EOSINOPHIL [1]: 247 CELLS/uL
- ABSOLUTE LYMPHOCYTE [1]: 11820.33 CELLS/uL
- ABSOLUTE MONOCYTE [1]: 0 CELLS/uL
- ABSOLUTE SEGMENTED NEUTROPHIL [1]: 1032.67 CELLS/uL
- BASOPHIL [1]: 0%
- EOSINOPHIL [1]: 2%
- ERYTHROCYTE COUNT [1]: 5.22 x10E6/uL
- HEMATOCRIT [1]: 32.83%
- HEMOGLOBIN [1]: 12.53 G/DL
- LEUKOCYTE COUNT [1]: 13.1 x10E3/uL
- LYMPHOCYTE [1]: 90.33%
- MEAN CORPUSCULAR HEMOGLOBIN [1]: 24.03 pg
- MEAN CORPUSCULAR HEMOGLOBIN CONCENTRATION [1]: 38.2 G/DL
- MEAN CORPUSCULAR VOLUME [1]: 63.03 fL
- MONOCYTE [1]: 0%
- NEUTROPHIL [1]: 7.67%
- NUCLEATED RED BLOOD CELLS [1]: 0 /100WBC
- PLATELET COUNT [1]: 1193.67 x10E3/uL
- ALANINE AMINOTRANSFERASE [1]: 53.33 u/L
- ALBUMIN [1]: 4.33 G/DL
- ALKALINE PHOSPHATASE [1]: 341.67 u/L
- ASPARTATE AMINOTRANSFERASE [1]: 80.67 u/L
- BLOOD UREA NITROGEN [1]: 18 mg/dL
- CARBON DIOXIDE [1]: 25.33 mmol/L
- CHLORIDE [1]: 102.67 MEQ/L
- CHOLESTEROL [1]: 79.33 mg/dL
- CREATINE PHOSPHOKINASE [1]: 166.33 u/L
- CREATININE [1]: 0.19 mg/dL
- GLUCOSE [1]: 146.67 mg/dL
- LACTATE DEHYDROGENASE [1]: 98.33 u/L
- LIPASE [1]: 8.67 u/L
- PHOSPHORUS [1]: 11.57 mg/dL
- POTASSIUM [1]: 5.98 MEQ/L
- SODIUM [1]: 144.17 MEQ/L
- TOTAL BILIRUBIN [1]: 0.17 mg/dL
- TOTAL PROTEIN [1]: 6.37 G/DL
- URIC ACID [1]: 1.27 mg/dL
- ABSOLUTE BASOPHIL [2]: 0 CELLS/uL
- ABSOLUTE EOSINOPHIL [2]: 137.33 CELLS/uL
- ABSOLUTE LYMPHOCYTE [2]: 12869.33 CELLS/uL
- ABSOLUTE MONOCYTE [2]: 0 CELLS/uL
- ABSOLUTE SEGMENTED NEUTROPHIL [2]: 1126.67 CELLS/uL
- BASOPHIL [2]: 0%
- EOSINOPHIL [2]: 1%
- ERYTHROCYTE COUNT [2]: 6.18 x10E6/uL
- HEMATOCRIT [2]: 38.67%
- HEMOGLOBIN [2]: 14.47 G/DL
- LEUKOCYTE COUNT [2]: 14.13 x10E3/uL
- LYMPHOCYTE [2]: 91%
- MEAN CORPUSCULAR HEMOGLOBIN [2]: 23.47 pg
- MEAN CORPUSCULAR HEMOGLOBIN CONCENTRATION [2]: 37.4 G/DL
- MEAN CORPUSCULAR VOLUME [2]: 62.63 fL
- MONOCYTE [2]: 0%
- NEUTROPHIL [2]: 8%
- NUCLEATED RED BLOOD CELLS [2]: 0 /100WBC
- PLATELET COUNT [2]: 1247.33 x10E3/uL
- ALANINE AMINOTRANSFERASE [2]: 48.67 u/L
- ALBUMIN [2]: 4.4 G/DL
- ALKALINE PHOSPHATASE [2]: 408 u/L
- ASPARTATE AMINOTRANSFERASE [2]: 76.67 u/L
- BLOOD UREA NITROGEN [2]: 14 mg/dL
- CARBON DIOXIDE [2]: 26.67 mmol/L
- CHLORIDE [2]: 99.67 MEQ/L
- CHOLESTEROL [2]: 80 mg/dL
- CREATINE PHOSPHOKINASE [2]: 218.33 u/L
- CREATININE [2]: 0.15 mg/dL
- GLUCOSE [2]: 162 mg/dL
- LACTATE DEHYDROGENASE [2]: 94.33 u/L
- LIPASE [2]: 8.67 u/L
- PHOSPHORUS [2]: 12.5 mg/dL
- POTASSIUM [2]: 6.95 MEQ/L
- SODIUM [2]: 144.6 MEQ/L
- TOTAL BILIRUBIN [2]: 0.17 mg/dL
- TOTAL PROTEIN [2]: 6.17 G/DL
- URIC ACID [2]: 1.83 mg/dL
- ABSOLUTE BASOPHIL [3]: 0 CELLS/uL
- ABSOLUTE EOSINOPHIL [3]: 190 CELLS/uL
- ABSOLUTE LYMPHOCYTE [3]: 12822 CELLS/uL
- ABSOLUTE MONOCYTE [3]: 0 CELLS/uL
- ABSOLUTE SEGMENTED NEUTROPHIL [3]: 1388 CELLS/uL
- BASOPHIL [3]: 0%
- EOSINOPHIL [3]: 1.33%
- ERYTHROCYTE COUNT [3]: 5.33 x10E6/uL
- HEMATOCRIT [3]: 33.83%
- HEMOGLOBIN [3]: 13.1 G/DL
- LEUKOCYTE COUNT [3]: 14.4 x10E3/uL
- LYMPHOCYTE [3]: 89.33%
- MEAN CORPUSCULAR HEMOGLOBIN [3]: 24.63 pg
- MEAN CORPUSCULAR HEMOGLOBIN CONCENTRATION [3]: 38.73 G/DL
- MEAN CORPUSCULAR VOLUME [3]: 63.53 fL
- MONOCYTE [3]: 0%
- NEUTROPHIL [3]: 9.33%
- NUCLEATED RED BLOOD CELLS [3]: 0 /100WBC
- PLATELET COUNT [3]: 1411.67 x10E3/uL
- ALANINE AMINOTRANSFERASE [3]: 48 u/L
- ALBUMIN [3]: 4.4 G/DL
- ALKALINE PHOSPHATASE [3]: 396.33 u/L
- ASPARTATE AMINOTRANSFERASE [3]: 69 u/L
- BLOOD UREA NITROGEN [3]: 15.67 mg/dL
- CARBON DIOXIDE [3]: 25.67 mmol/L
- CHLORIDE [3]: 103.33 MEQ/L
- CHOLESTEROL [3]: 71.67 mg/dL
- CREATINE PHOSPHOKINASE [3]: 233.33 u/L
- CREATININE [3]: 0.17 mg/dL
- GLUCOSE [3]: 169 mg/dL
- LACTATE DEHYDROGENASE [3]: 123.33 u/L
- LIPASE [3]: 8.33 u/L
- PHOSPHORUS [3]: 12.8 mg/dL
- POTASSIUM [3]: 6.57 MEQ/L
- SODIUM [3]: 145.83 MEQ/L
- TOTAL BILIRUBIN [3]: 0.23 mg/dL
- TOTAL PROTEIN [3]: 6.23 G/DL
- URIC ACID [3]: 1.7 mg/dL
